Experimental data as given in US12565504B2, “Spirocyclic O-glycoprotein-2-acetamido-2-deoxy-3-d-glucopyranosidase inhibitors” (BIOGEN MA INC., priority 2019, dated 2026).

What was measured:
OGA (S400 O-GLCNAC) = OGA (S400 O-GLCNAC) (Homo sapiens (Human), UniProt O60502); assay: Cellular OGA-Tau MSD Assay; format: cell-based; conditions: HEK-293T cells transfected with OGT and Tau-V5; Tau-S400-GlcNAc MSD readout
Protocol: HEK-293T cells were transfected with OGT and Tau-V5 plasmids using Lipofectamine and grown overnight. Next day, the cells were collected and re-plated at 1×10^5 cells per well in 96 well plates. Cells were incubated for 4 hr at 37° C., before compounds were added at 1 uM, with 3-fold dilutions in a 10-point titration. Cell plates were incubated with compounds overnight at 37° C. The next day media was removed from wells by gentle aspiration and 120 ul of 1× Cell Lysis buffer mixed with protease and phosphatase cocktail added to each well. A freeze thaw was performed at −80° C., then mixed before transferring 50 μl to MSD plates coated with V5-tag antibody to capture Tau. MSD Plates were incubated overnight at 4° C., on a plate shaker. The following day, plates were washed and incubated with Tau-S400-GlcNAc antibody for 2 hr and then developed with rabbit Sulfo-tag antibody. Final read out was carried out on an MSD 600 reader. The data was analyzed using Graph Pad or Genedata, the data was normalized and % activity versus log of compound concentration was plotted. The ICso values were obtained from a 4 parameter fit.

[1] = Rat Liver Microsome Stability Assay; conditions: rat liver microsomes 0.5 mg/mL, compound 1 μM; Qh 55 mL/minute/kg
Protocol: Aliquots (40 uL) at 0, 5, 10, 15, 25 and 40 minutes post NADPH addition (or compound addition for reactions in absence of NADPH) were transferred into individual 96-well plate wells containing 40 ng/ml of 8-cyclopently-1,3-dipropylxanthine (CPDPX, internal standard) in 160 uL acetonitrile:methanol (1:1 v/v).
The LC/MS/MS system consisted of an ultra high throughput RapidFire® 300 system (Agilent Technologies, Santa Clara, CA) coupled to a Triple Quad 5500 mass spectrometer (ABSciex, Foster City, CA). Sample load and wash were performed on a RapidFire® C4 cartridge using 0.1% formic acid in water as mobile phase A and sample elution using 0.1% formic acid in acetonitrile:methanol (1:1 v/v) as mobile phase B.
CLint, app (apparent intrinsic clearance) was calculated using the following equation for microsome stability.
[formula] • where “a” represents 45 grams of liver/kg of body weight for rat. • CLint,app (apparent intrinsic clearance) was calculated using the following equation for hepatocyte stability: • CLhep (hepatic clearance) was calculated using the following equation for microsomes
[formula] • using 55 mL/minute/kg as Qh (hepatic blood flow) for rat.

P-gp (MDR1) = assay: MDR1-MDCK Efflux Ratio Assay; format: in vitro ADME; conditions: dog, MDR1-MDCK cells, pH 7.4, read-out: MDR1-MDCK Efflux Ratio (B-A/A-B)
Protocol: MDR1-MDCK cell monolayers were grown to confluence on microporous polyester membranes in 96-well Corning insert plates. The permeability assay buffer was Hanks' Balanced Salt Solution containing 10 mM HEPES at pH of 7.4. Loperamide (1 μM) was used as a positive control P-gp substrate. Propranolol and Bestatin (1 μM) were used as high and low permeability comparators, respectively.
Test compounds or positive control P-gp substrate/permeability comprators were added to respective apical and basolateral chambers for bidirectional assessment of permeability. Receiver buffer (transport buffer supplemented with 1% bovine serum albumin) was added to respective receiver chambers. MDR1-MDCK cells were incubated with test compounds at 37° C. with 5% CO2 for 2 hr. Samples were collected from the donor chamber at both 0 and 120 minutes, and from the receiver chamber at 120 minutes. Test and control compound concentrations were determined using LC-MS/MS analysis. Each determination was performed in triplicate.

[2] = biological target: Recombinant full length human OGA enzyme (Homo sapiens (Human), UniProt O60502); assay: OGA Enzyme Inhibition Biochemical Assay; conditions: 1 nM OGA, 100 μM 4-MUGlcNAc, 90 minutes, pH 6.4
Sequence of Recombinant full length human OGA enzyme (O60502 whole entry): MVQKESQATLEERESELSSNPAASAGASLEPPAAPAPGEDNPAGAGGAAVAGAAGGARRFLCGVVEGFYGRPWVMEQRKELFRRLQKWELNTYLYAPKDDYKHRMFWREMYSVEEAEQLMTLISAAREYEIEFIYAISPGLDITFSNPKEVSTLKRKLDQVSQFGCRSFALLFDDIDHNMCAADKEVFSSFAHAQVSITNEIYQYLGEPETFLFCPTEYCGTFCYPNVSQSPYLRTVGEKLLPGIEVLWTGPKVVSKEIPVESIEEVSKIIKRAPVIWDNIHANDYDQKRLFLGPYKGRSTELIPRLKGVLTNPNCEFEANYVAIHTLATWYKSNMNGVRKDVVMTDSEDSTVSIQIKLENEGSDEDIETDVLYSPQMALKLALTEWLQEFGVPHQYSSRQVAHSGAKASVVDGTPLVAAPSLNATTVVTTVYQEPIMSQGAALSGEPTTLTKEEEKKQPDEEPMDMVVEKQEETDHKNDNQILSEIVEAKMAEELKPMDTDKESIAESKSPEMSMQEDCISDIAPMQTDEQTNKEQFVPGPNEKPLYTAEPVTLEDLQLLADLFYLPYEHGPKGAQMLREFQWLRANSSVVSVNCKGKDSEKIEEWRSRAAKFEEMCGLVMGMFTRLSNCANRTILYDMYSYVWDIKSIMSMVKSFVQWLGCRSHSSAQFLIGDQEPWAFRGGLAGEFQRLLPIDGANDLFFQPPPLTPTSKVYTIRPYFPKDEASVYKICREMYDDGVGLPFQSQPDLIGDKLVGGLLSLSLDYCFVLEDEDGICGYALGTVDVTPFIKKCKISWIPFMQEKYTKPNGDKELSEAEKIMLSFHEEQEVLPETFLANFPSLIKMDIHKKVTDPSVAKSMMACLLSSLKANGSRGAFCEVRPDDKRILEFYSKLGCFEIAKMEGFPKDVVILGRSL
Protocol: Recombinant full length human OGA enzyme was purchased from Origene. 4-MUGlcNAc substrate was purchased from Sigma. All other reagents were purchased from Sigma or Fisher. Assay buffer consists of the McIlvaine buffer system, pH 6.4 (0.2M Na2HPO4 mixed with 0.1M citric acid) and 0.01% BSA. […] Reactions were incubated for 90 minutes at room temperature and quenched with 40 μl of 3M glycine, pH 10 and read on a Perkin Elmer Envision plate reader (Ex: 355 nm/Em: 460 nm). Compounds were tested with a 10-point dose-response starting from 20 μM with a 4-fold dilution. Data was fit using GraphPad Prism using a 4-parameter fit with variable slope.

Sequence of OGA (S400 O-GLCNAC) (O60502 whole entry): as above

Row | Structure (SMILES) | IC50 (OGA (S400 O-GLCNAC)) [µM] | RLM % Qh (%) [1] [%] | efflux ratio at 2 h (P-gp (MDR1)) | IC50 [2] [µM]
1 | COc1cc2c(cn1)[C@]1(C[C@H](C)N(Cc3sc(NC(C)=O)nc3F)C1)OC2 (single isomer, unassigned) [Example 75-a] | 0.04 | 59 | 7.8 | 
2 | CC(=O)Nc1nc(F)c(CN2C[C@@]3(Cc4cc(NC(C)C)ncc4O3)C[C@@H]2C)s1 [Example 30, N-(4-Fluoro-5-(((2R,5′S)-5-(isopropylamino)-5′-methyl-3H-spiro[furo[2,3-c]pyridine-2,3′-pyrrolidin]-1′-yl)methyl)thiazol-2-yl)acetamide] | 0.008 |  |  | < 0.001
3 | CC(=O)Nc1nc(F)c(CN2C[C@@]3(Cc4cc(NC5CC5)ncc4O3)C[C@@H]2C)s1 [Example 31, N-(5-(((2R,5′S)-5-(Cyclopropylamino)-5′-methyl-3H-spiro[furo[2,3-c]pyridine-2,3′-pyrrolidin]-1′-yl)methyl)-4-fluorothiazol-2-yl)acetamide] | 0.015 |  |  | < 0.001
4 | CC(=O)Nc1nc(F)c(CN2C[C@@]3(Cc4ccccc4O3)C[C@@H]2C)s1 [Example 1, N-(4-Fluoro-5-(((2R,5′S)-5′-methyl-3H-spiro[benzofuran-2,3′-pyrrolidin]-1′-yl)methyl)thiazol-2-yl)acetamide] | 0.865 |  |  | 0.015
5 | COc1cc2c(cn1)O[C@]1(C2)C[C@H](C)N(Cc2sc(NC(C)=O)nc2F)C1 [Example 16, N-(4-Fluoro-5-(((2R,5′S)-5-methoxy-5′-methyl-3H-spiro[furo[2,3-c]pyridine-2,3′-pyrrolidin]-1′-yl)methyl)thiazol-2-yl)acetamide] | 0.002 |  |  | < 0.001
6 | CC(=O)Nc1nc(F)c(CN2CCC[C@@]3(C2)OCc2c3ccnc2Cl)s1 [Example 84-a, (R)—N-(5-((4-chloro-3H-spiro[furo[3,4-c]pyridine-1,3′-piperidin]-1′-yl)methyl)-4-fluorothiazol-2-yl)acetamide] | 0.0085 |  |  | 0.0026
7 | CC(=O)Nc1nc(F)c(CN2CCC[C@]3(C2)OCc2cnccc23)s1 (single isomer, unassigned) [Example 70-b] | > 1 |  |  | 0.85
8 | CC(=O)Nc1ncc(CN2CC3(C[C@@H]2C)OCc2ncccc23)s1 (stereo partly drawn) [Example 80, N-(5-(((5′S)-5′-Methyl-7H-spiro[furo[3,4-b]pyridine-5,3′-pyrrolidin]-1′-yl)methyl)thiazol-2-yl)acetamide] | 0.015 |  |  | 0.049
9 | CC(=O)Nc1ncc(CN2C[C@@]3(Cc4cc(C5CC5)ncc4O3)C[C@@H]2C)s1 [Example 25, N-(5-(((2R,5′S)-5-Cyclopropyl-5′-methyl-3H-spiro[furo[2,3-c]pyridine-2,3′-pyrrolidin]-1′-yl)methyl)thiazol-2-yl)acetamide] | 0.023 |  |  | 0.006
10 | CC(=O)Nc1nc(F)c(CN2CCCC3(C2)OCc2cnccc23)s1 (racemic) [Example 69, N-(5-((3H-Spiro[furo[3,4-c]pyridine-1,3′-piperidin]-1′-yl)methyl)-4-fluorothiazol-2-yl)acetamide] | 0.0138 |  |  | 0.0032
11 | CC(=O)Nc1ncc(CN2C[C@@]3(Cc4cc(N5CCOCC5)ncc4O3)C[C@@H]2C)s1 [Example 37, N-(5-(((2R,5′S)-5′-Methyl-5-morpholino-3H-spiro[furo[2,3-c]pyridine-2,3′-pyrrolidin]-1′-yl)methyl)thiazol-2-yl)acetamide] | 0.009 |  |  | < 0.001
12 | CC(=O)Nc1nc(F)c(CN2C[C@@]3(Cc4cc(C(F)(F)F)ncc4O3)C[C@@H]2C)s1 [Example 21, N-(4-Fluoro-5-(((2R,5′S)-5′-methyl-5-(trifluoromethyl)-3H-spiro[furo[2,3-c]pyridine-2,3′-pyrrolidin]-1′-yl)methyl)thiazol-2-yl)acetamide] | 0.006 |  |  | 0.007
13 | CC(=O)Nc1nc(F)c(CN2CCCC3(C2)OCc2c3ccnc2Cl)s1 (racemic) [Example 83, N-(5-((4-Chloro-3H-spiro[furo[3,4-c]pyridine-1,3′-piperidin]-1′-yl)methyl)-4-fluorothiazol-2-yl)acetamide] | 0.0183 |  |  | 0.0059
14 | CC(=O)Nc1nc(F)c(CN2CC3(C[C@@H]2C)OCc2ccccc23)s1 (stereo partly drawn) [Example 58, N-(4-Fluoro-5-(((5′S)-5′-methyl-3H-spiro[isobenzofuran-1,3′-pyrrolidin]-1′-yl)methyl)thiazol-2-yl)acetamide] | 0.014 |  |  | 0.0042
15 | CC(=O)Nc1nc(F)c(CN2C[C@@]3(Cc4cc(N(C)C)ncc4O3)C[C@@H]2C)s1 [Example 28, N-(5-(((2R,5′S)-5-(Dimethylamino)-5′-methyl-3H-spiro[furo[2,3-c]pyridine-2,3′-pyrrolidin]-1′-yl)methyl)-4-fluorothiazol-2-yl)acetamide] | 0.001 |  |  | < 0.001
16 | COCCN(C)c1cc2c(cn1)O[C@]1(C2)C[C@H](C)N(Cc2cnc(NC(C)=O)s2)C1 [Example 32, N-(5-(((2R,5′S)-5-((2-Methoxyethyl)(methyl)amino)-5′-methyl-3H-spiro[furo[2,3-c]pyridine-2,3′-pyrrolidin]-1′-yl)methyl)thiazol-2-yl)acetamide] | 0.007 |  |  | < 0.001
17 | CC(=O)Nc1ncc(CN2CCCC3(C2)OCc2c3cc[nH]c2=O)s1 (centres unmarked) [Example 87, N-(5-((4-Oxo-4,5-dihydro-3H-spiro[furo[3,4-c]pyridine-1,3′-piperidin]-1′-yl)methyl)thiazol-2-yl)acetamide] | 0.0543 |  |  | 0.035
18 | CC(=O)Nc1ncc(CN2CC3(CCC2C)OCc2ccccc23)s1 (centres unmarked) [Example 60, N-(5-((6′-Methyl-3H-spiro[isobenzofuran-1,3′-piperidin]-1′-yl)methyl)thiazol-2-yl)acetamide] | > 1 |  |  | 1.7
19 | CC(=O)Nc1nc(F)c(CN2CC3(Cc4nc(O)cnc4O3)C[C@@H]2C)s1 (stereo partly drawn) [Example 51, N-(4-fluoro-5-(((5′S)-2-hydroxy-5′-methyl-7H-spiro[furo[2,3-b]pyrazine-6,3′-pyrrolidin]-1′-yl)methyl)thiazol-2-yl)acetamide] | 0.059 |  |  | 0.091
20 | CC(=O)Nc1ncc(CN2CCC3(C2)OCc2cnccc23)s1 (centres unmarked) [Example 66, N-(5-((3H-Spiro[furo[3,4-c]pyridine-1,3′-pyrrolidin]-1′-yl)methyl)thiazol-2-yl)acetamide] | 0.794 |  |  | 0.21
21 | COc1nccc2c1C[C@]1(C[C@H](C)N(Cc3sc(NC(C)=O)nc3F)C1)O2 [Example 18, N-(4-Fluoro-5-(((2R,5′S)-4-methoxy-5′-methyl-3H-spiro[furo[3,2-c]pyridine-2,3′-pyrrolidin]-1′-yl)methyl)thiazol-2-yl)acetamide] | 0.004 |  |  | 0.002
22 | CC(=O)Nc1ncc(CN2C[C@@]3(Cc4cc(N5CCN(C)CC5)ncc4O3)C[C@@H]2C)s1 [Example 44, N-(5-(((2R,5′S)-5′-Methyl-5-(4-methylpiperazin-1-yl)-3H-spiro[furo[2,3-c]pyridine-2,3′-pyrrolidin]-1′-yl)methyl)thiazol-2-yl)acetamide] | 0.013 |  |  | < 0.001
23 | CC(=O)Nc1nc(F)c(CN2CCC3(C2)OCc2cnccc23)s1 (centres unmarked) [Example 67, N-(5-((3H-Spiro[furo[3,4-c]pyridine-1,3′-pyrrolidin]-1′-yl)methyl)-4-fluorothiazol-2-yl)acetamide] | 1 |  |  | 0.12
24 | CC(=O)Nc1nc(F)c(CN2CCCC3(C2)OCc2ccccc23)s1 (centres unmarked) [Example 56, N-(5-((3H-Spiro[isobenzofuran-1,3′-piperidin]-1′-yl)methyl)-4-fluorothiazol-2-yl)acetamide] | 0.112 |  |  | 0.017
25 | CC(=O)Nc1nc(F)c(CN2C[C@@]3(C[C@@H]2C)OCc2cnccc23)s1 (single isomer, unassigned) [Example 64-a] | 0.118 |  |  | 0.01
26 | CC(=O)Nc1ncc(CN2CCCC3(CCc4ccccc43)C2)s1 (centres unmarked) [Example 53, N-(5-((2,3-Dihydrospiro[indene-1,3′-piperidin]-1′-yl)methyl)thiazol-2-yl)acetamide] | 0.532 |  |  | 0.073
